Test results taken from PubChem BioAssay AID1745844 (Carcinogenic Potency Database (CPDB), 2022).
“And” between values parts separate entries of the source, which are not always exact repeats. Equal values may be shown once. The source made the active and inactive calls. The rule behind the calls is not given here.

System: rodent lifetime carcinogenesis bioassay, tumor incidence TD50
Experiment: chronic cancer bioassays in animals – CPDB, compiled studies (AID 1745844)

SMILES: CC(C)(Oc1ccc(C2CCCc3ccccc32)cc1)C(=O)O (stereo unspecified)
- carcinogen call (hamster, strain Syrian, MB strain, males, in feed, site: liver, lesion: several types, types named in the paper, dosed 60 weeks, study length 60 weeks): negative (inactive)
- TD50 (rat, strain Fischer 344, males, in feed, site: liver, lesion: hepatocellular carcinoma, dosed 108 weeks, study length 108 weeks): 22.4 mg/kg/day
- TD50 (rat, strain Fischer 344, males, in feed, site: pancreas, lesion: acinar-cell adenoma, dosed 108 weeks, study length 108 weeks): 207 mg/kg/day
- TD50 (rat, strain Fischer 344, males, in feed, site: pancreas, lesion: acinar-cell carcinoma, dosed 108 weeks, study length 108 weeks): 428 mg/kg/day
- TD50 (rat, strain Fischer 344, males, in feed, site: pancreas, lesion: several types, types named in the paper, dosed 108 weeks, study length 108 weeks): 132 mg/kg/day
- TD50 (rat, strain Sprague-Dawley, males, in feed, site: liver, lesion: several types, types named in the paper, dosed 60 weeks, study length 60 weeks): 3.51 mg/kg/day
- TD50 (rat, strain Wistar, females, in feed, site: liver, lesion: hepatocellular adenoma, dosed 70 weeks, study length 70 weeks): 55.5 mg/kg/day
- TD50 (rat, strain Wistar, females, in feed, site: liver, lesion: hepatocellular carcinoma, dosed 55 weeks, study length 55 weeks): 163 mg/kg/day
- TD50 (rat, strain Wistar, females, in feed, site: liver, lesion: hepatocellular carcinoma, dosed 70 weeks, study length 70 weeks): 92.3 mg/kg/day
- TD50 (rat, strain Wistar, females, in feed, site: liver, lesion: several types, types named in the paper, dosed 55 weeks, study length 55 weeks): 163 mg/kg/day
- TD50 (rat, strain Wistar, females, in feed, site: liver, lesion: several types, types named in the paper, dosed 70 weeks, study length 70 weeks): 36.6 mg/kg/day
- TD50 (rat, strain Wistar, males, in feed, site: any site (literature study), lesion: one or several types, types not named, dosed 59 weeks, study length 59 weeks): 12.3 mg/kg/day
- TD50 (rat, strain Wistar, males, in feed, site: liver, lesion: hepatocellular adenoma, dosed 57 weeks, study length 57 weeks): 38.8 mg/kg/day
- TD50 (rat, strain Wistar, males, in feed, site: liver, lesion: hepatocellular adenoma, dosed 59 weeks, study length 59 weeks): 48 mg/kg/day
- TD50 (rat, strain Wistar, males, in feed, site: liver, lesion: hepatocellular carcinoma, dosed 57 weeks, study length 57 weeks): 59.1 mg/kg/day
- TD50 (rat, strain Wistar, males, in feed, site: liver, lesion: hepatocellular carcinoma, dosed 59 weeks, study length 59 weeks): 58.1 mg/kg/day
- TD50 (rat, strain Wistar, males, in feed, site: liver, lesion: several types, types named in the paper, dosed 57 weeks, study length 57 weeks): 19.8 mg/kg/day
- TD50 (rat, strain Wistar, males, in feed, site: liver, lesion: several types, types named in the paper, dosed 59 weeks, study length 59 weeks): 22.1 mg/kg/day

SMILES: S=[Se]
- TD50 (mouse, strain B6C3F1, females, by gavage, site: any site (literature study), lesion: several types, types named in the paper, dosed 103 weeks, study length 104 weeks): 69.7 mg/kg/day
- TD50 (mouse, strain B6C3F1, females, by gavage, site: liver + lung, lesion: hepatocellular adenoma + hepatocellular carcinoma + alveolar/bronchiolar adenoma + alveolar/bronchiolar carcinoma, dosed 103 weeks, study length 104 weeks): 46.8 mg/kg/day
- TD50 (mouse, strain B6C3F1, females, by gavage, site: liver, lesion: hepatocellular adenoma + hepatocellular carcinoma + neoplastic nodule, dosed 103 weeks, study length 104 weeks): 69.3 mg/kg/day
- TD50 (mouse, strain B6C3F1, females, by gavage, site: liver, lesion: hepatocellular adenoma + hepatocellular carcinoma, dosed 103 weeks, study length 104 weeks): 69.3 mg/kg/day
- TD50 (mouse, strain B6C3F1, females, by gavage, site: liver, lesion: hepatocellular carcinoma, dosed 103 weeks, study length 104 weeks): 85.2 mg/kg/day
- TD50 (mouse, strain B6C3F1, females, by gavage, site: lung, lesion: alveolar/bronchiolar adenoma + alveolar/bronchiolar carcinoma, dosed 103 weeks, study length 104 weeks): 137 mg/kg/day
- TD50 (mouse, strain B6C3F1, females, by gavage, site: lung, lesion: alveolar/bronchiolar carcinoma, dosed 103 weeks, study length 104 weeks): 433 mg/kg/day
- TD50 (mouse, strain B6C3F1, males, by gavage, site: any site (literature study), lesion: several types, types named in the paper, dosed 103 weeks, study length 104 weeks): 735 mg/kg/day (inactive)
- TD50 (mouse, strain B6C3F1, males, by gavage, site: liver, lesion: hepatocellular adenoma + hepatocellular carcinoma + neoplastic nodule, dosed 103 weeks, study length 104 weeks): 202 mg/kg/day
- TD50 (mouse, strain B6C3F1, males, by gavage, site: lung, lesion: alveolar/bronchiolar adenoma + alveolar/bronchiolar carcinoma, dosed 103 weeks, study length 104 weeks): 183 mg/kg/day
- TD50 (rat, strain Fischer 344, females, by gavage, site: any site (literature study), lesion: several types, types named in the paper, dosed 103 weeks, study length 104 weeks): 19.3 mg/kg/day
- TD50 (rat, strain Fischer 344, females, by gavage, site: liver, lesion: hepatocellular adenoma + hepatocellular carcinoma + neoplastic nodule, dosed 103 weeks, study length 104 weeks): 6.14 mg/kg/day
- TD50 (rat, strain Fischer 344, females, by gavage, site: liver, lesion: hepatocellular carcinoma + neoplastic nodule, dosed 103 weeks, study length 104 weeks): 6.14 mg/kg/day
- TD50 (rat, strain Fischer 344, females, by gavage, site: liver, lesion: hepatocellular carcinoma, dosed 103 weeks, study length 104 weeks): 13.2 mg/kg/day
- TD50 (rat, strain Fischer 344, males, by gavage, site: any site (literature study), lesion: several types, types named in the paper, dosed 103 weeks, study length 104 weeks): 25 mg/kg/day
- TD50 (rat, strain Fischer 344, males, by gavage, site: liver, lesion: hepatocellular adenoma + hepatocellular carcinoma + neoplastic nodule, dosed 103 weeks, study length 104 weeks): 11.5 mg/kg/day
- TD50 (rat, strain Fischer 344, males, by gavage, site: liver, lesion: hepatocellular carcinoma + neoplastic nodule, dosed 103 weeks, study length 104 weeks): 11.5 mg/kg/day
- TD50 (rat, strain Fischer 344, males, by gavage, site: liver, lesion: hepatocellular carcinoma, dosed 103 weeks, study length 104 weeks): 21 mg/kg/day

SMILES: CC(CN1CC(=O)NC(=O)C1)N1CC(=O)NC(=O)C1 (stereo unspecified)
- TD50 (mouse, strain B6C3F1, females, i.p., site: all sites, lesion: leukemia + lymphoma, histiocytic type + lymphoma, dosed 52 weeks, study length 86 weeks): 23.7 mg/kg/day
- TD50 (mouse, strain B6C3F1, females, i.p., site: all sites, lesion: leukemia + lymphoma, dosed 52 weeks, study length 86 weeks): 23.7 mg/kg/day and 25.9 mg/kg/day
- TD50 (mouse, strain B6C3F1, females, i.p., site: all sites, lesion: lymphoma, histiocytic type, dosed 52 weeks, study length 86 weeks): 53.7 mg/kg/day
- TD50 (mouse, strain B6C3F1, females, i.p., site: any site (literature study), lesion: several types, types named in the paper, dosed 52 weeks, study length 86 weeks): 16.8 mg/kg/day
- TD50 (mouse, strain B6C3F1, males, i.p., site: any site (literature study), lesion: several types, types named in the paper, dosed 52 weeks, study length 86 weeks): 262 mg/kg/day (inactive)
- TD50 (mouse, strain B6C3F1, males, i.p., site: lung, lesion: alveolar/bronchiolar adenoma + alveolar/bronchiolar carcinoma, dosed 52 weeks, study length 86 weeks): 212 mg/kg/day
- TD50 (rat, strain Sprague-Dawley, females, i.p., site: any site (literature study), lesion: several types, types named in the paper, dosed 52 weeks, study length 81 weeks): 6.48 mg/kg/day
- TD50 (rat, strain Sprague-Dawley, females, i.p., site: uterus, lesion: adenocarcinoma, NOS, dosed 52 weeks, study length 79 weeks): 10.7 mg/kg/day
- TD50 (rat, strain Sprague-Dawley, females, i.p., site: uterus, lesion: adenocarcinoma, NOS, dosed 52 weeks, study length 81 weeks): 11.3 mg/kg/day
- TD50 (rat, strain Sprague-Dawley, males, i.p., site: any site (literature study), lesion: several types, types named in the paper, dosed 52 weeks, study length 81 weeks): 9.55 mg/kg/day (inactive)
- TD50 (rat, strain Sprague-Dawley, males, i.p., site: liver, lesion: hepatocellular adenoma + hepatocellular carcinoma + neoplastic nodule, dosed 52 weeks, study length 81 weeks): 105 mg/kg/day

SMILES: CC(=O)C(N=Nc1ccc(Cl)cc1Cl)C(=O)Nc1ccc(-c2ccc(NC(=O)C(N=Nc3ccc(Cl)cc3Cl)C(C)=O)c(C)c2)cc1C (stereo unspecified)
- TD50 (mouse, strain NMRI, both sexes, in feed, site: any site (literature study), lesion: one or several types, types not named, dosed 104 weeks, study length 104 weeks): 11700 mg/kg/day (inactive)
- TD50 (rat, strain Sprague-Dawley, both sexes, in feed, site: any site (literature study), lesion: one or several types, types not named, dosed 104 weeks, study length 104 weeks): 13700 mg/kg/day (inactive)

SMILES: COP(=S)(OC)Oc1ccc([N+](=O)[O-])cc1
- carcinogen call (mouse, strain B6C3F1, females, in feed, site: any site (literature study), lesion: several types, types named in the paper, dosed 102 weeks, study length 102 weeks): negative (inactive)
- TD50 (mouse, strain B6C3F1, females, in feed, site: lung, lesion: alveolar/bronchiolar adenoma + alveolar/bronchiolar carcinoma, dosed 102 weeks, study length 102 weeks): 125 mg/kg/day
- carcinogen call (mouse, strain B6C3F1, males, in feed, site: any site (literature study), lesion: several types, types named in the paper, dosed 102 weeks, study length 102 weeks): negative (inactive)
- TD50 (mouse, strain B6C3F1, males, in feed, site: lung, lesion: alveolar/bronchiolar adenoma + alveolar/bronchiolar carcinoma, dosed 102 weeks, study length 102 weeks): 58.1 mg/kg/day
- carcinogen call (rat, strain Fischer 344, females, in feed, site: any site (literature study), lesion: several types, types named in the paper, dosed 105 weeks, study length 105 weeks): negative (inactive)
- carcinogen call (rat, strain Fischer 344, males, in feed, site: any site (literature study), lesion: several types, types named in the paper, dosed 105 weeks, study length 105 weeks): negative (inactive)

SMILES: Nc1ncn([C@@H]2O[C@H](CO)[C@@H](O)[C@H]2O)c(=O)n1
- TD50 (mouse, strain B6C3F1, females, i.p., site: all sites + multiple organs, lesion: lymphoma + granulocytic leukemia + granulocytic sarcoma, dosed 52 weeks, study length 81 weeks): 0.256 mg/kg/day
- TD50 (mouse, strain B6C3F1, females, i.p., site: all sites, lesion: lymphoma, dosed 52 weeks, study length 81 weeks): 0.615 mg/kg/day
- TD50 (mouse, strain B6C3F1, females, i.p., site: any site (literature study), lesion: several types, types named in the paper, dosed 52 weeks, study length 81 weeks): 0.219 mg/kg/day
- TD50 (mouse, strain B6C3F1, females, i.p., site: multiple organs, lesion: granulocytic leukemia + granulocytic sarcoma, dosed 52 weeks, study length 81 weeks): 0.52 mg/kg/day
- TD50 (mouse, strain B6C3F1, males, i.p., site: any site (literature study), lesion: several types, types named in the paper, dosed 52 weeks, study length 81 weeks): 1.05 mg/kg/day
- TD50 (mouse, strain B6C3F1, males, i.p., site: liver, lesion: hepatocellular adenoma + hepatocellular carcinoma + neoplastic nodule, dosed 52 weeks, study length 81 weeks): 15.7 mg/kg/day
- TD50 (mouse, strain B6C3F1, males, i.p., site: lung, lesion: alveolar/bronchiolar adenoma + alveolar/bronchiolar carcinoma, dosed 52 weeks, study length 81 weeks): 61.4 mg/kg/day
- TD50 (mouse, strain BALB/c, females, i.p., site: any site (literature study), lesion: one or several types, types not named, dosed 50 weeks, study length 72 weeks): 0.0364 mg/kg/day
- TD50 (mouse, strain BALB/c, females, i.p., site: lymphoreticular system, lesion: several types, types named in the paper, dosed 50 weeks, study length 72 weeks): 0.0569 mg/kg/day
- TD50 (mouse, strain BALB/c, females, i.p., site: mammary gland, lesion: adenocarcinoma, type B, dosed 50 weeks, study length 72 weeks): 0.618 mg/kg/day
- TD50 (mouse, strain BALB/c, females, i.p., site: mammary gland, lesion: several types, types named in the paper, dosed 50 weeks, study length 72 weeks): 0.432 mg/kg/day
- TD50 (mouse, strain BALB/c, females, i.p., site: skin, lesion: several types, types named in the paper, dosed 50 weeks, study length 72 weeks): 0.499 mg/kg/day
- TD50 (mouse, strain BALB/c, males, i.p., site: any site (literature study), lesion: one or several types, types not named, dosed 50 weeks, study length 67 weeks): 0.0539 mg/kg/day
- TD50 (mouse, strain BALB/c, males, i.p., site: liver, lesion: hepatocellular adenoma, dosed 50 weeks, study length 67 weeks): 1.49 mg/kg/day
- TD50 (mouse, strain BALB/c, males, i.p., site: lung, lesion: adenoma, dosed 50 weeks, study length 67 weeks): 0.121 mg/kg/day
- TD50 (mouse, strain BALB/c, males, i.p., site: lymphoreticular system, lesion: several types, types named in the paper, dosed 50 weeks, study length 67 weeks): 0.285 mg/kg/day
- TD50 (mouse, strain BALB/c, males, i.p., site: skin, lesion: several types, types named in the paper, dosed 50 weeks, study length 67 weeks): 0.98 mg/kg/day
- TD50 (rat, strain Fischer 344, males, i.p., site: any site (literature study), lesion: one or several types, types not named, dosed 52 weeks, study length 52 weeks): 0.17 mg/kg/day
- TD50 (rat, strain Fischer 344, males, i.p., site: testis, lesion: one or several types, types not named, dosed 52 weeks, study length 52 weeks): 0.222 mg/kg/day
- TD50 (rat, strain Sprague-Dawley, females, i.p., site: any site (literature study), lesion: several types, types named in the paper, dosed 34 weeks, study length 80 weeks): 0.487 mg/kg/day
- TD50 (rat, strain Sprague-Dawley, males, i.p., site: any site (literature study), lesion: several types, types named in the paper, dosed 34 weeks, study length 80 weeks): 0.328 mg/kg/day
